Data published in patent publication US20210221785A1, “AMINO-PYRIMIDONYL DERIVATIVES, A PROCESS FOR THEIR PREPARATION AND PHARMACEUTICAL COMPOSITIONS CONTAINING THEM” (LES LABORATOIRES SERVIER, priority 2018, published 2021).

How the values were obtained:
[1] = molecular target: T1, His-His-USP7 (aa208-560, |C315A|) (Homo sapiens, UniProt Q93009, C315A); assay: Evaluation of the inhibition of USP7 by the Fluorescence Intensity (FLINT) readings; format: biochemical; details: 0.25 nM His-His-USP7, compound incubated 60 minutes at 30° C., 500 nM Ubiquitin-Rhodamine-110 substrate; 50% reduction in kinetic rate
T1 construct: His-His-USP7 (aa208-560, |C315A|); His-His (N)
In short: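 0.25 nM His-His-USP7 (aa208–560, C315A) preincubated 60 min at 30 °C with compound in 100 mM Bicine pH 8.0, 0.01% Triton X-100, 1 mM TCEP, 10% DMSO. Reaction started with 500 nM ubiquitin-rhodamine-110 and fluorescence (Ex485/Em535) read every 3 min for 21 min. IC50 derived from kinetic-rate reduction over an 11-point curve, 4-parameter fit.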

[2] = test system: Z138 mantle cell lymphoma tumour cell lines; assay: In vitro cytotoxicity, MTT assay; format: cell-based; details: Homo sapiens, Z-138, 96 h, Z138 cells exposed to the test compounds for 96 hours; cell viability vs DMSO treated cells
In short: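 Z138 cells exposed to compounds for 96 hours, then MTT added for 4 hours. Viable cells quantified from formazan absorbance at 540 nm.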

T1 sequence (Q93009 208-560 C315A): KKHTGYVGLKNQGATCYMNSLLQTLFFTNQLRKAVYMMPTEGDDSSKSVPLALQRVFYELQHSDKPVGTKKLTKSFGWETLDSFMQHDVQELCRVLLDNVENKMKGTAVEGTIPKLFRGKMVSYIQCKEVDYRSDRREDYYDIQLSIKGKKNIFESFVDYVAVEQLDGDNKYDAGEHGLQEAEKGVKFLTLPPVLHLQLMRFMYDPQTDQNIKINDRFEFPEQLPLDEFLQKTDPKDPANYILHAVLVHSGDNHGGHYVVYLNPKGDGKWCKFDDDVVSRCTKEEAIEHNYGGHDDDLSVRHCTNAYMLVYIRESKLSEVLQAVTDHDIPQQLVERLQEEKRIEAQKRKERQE

Compound	IC50 [1]	IC50 [2]
CO[C@]1(C#Cc2nnccc2C)CC[C@@H](C(=O)N2CC[C@](O)(Cn3cnc(Oc4ccc(F)cc4)c(N)c3=O)C(F)(F)C2)[C@H](c2ccccc2)C1 [Example 170, 5-amino-3-{[(4S)-3,3-difluoro-4-hydroxy-1-[(1R,2R,4R)-4-methoxy-4-[2-(4-methylpyridazin-3-yl)ethynyl]-2-phenylcyclohexanecarbonyl]piperidin-4-yl]methyl}-6-(4-fluorophenoxy)-3,4-dihydropyrimidin-4-one]	39.8 nM	0.0219 µM
CO[C@]1(C#Cc2ncc(C)cn2)CC[C@@H](C(=O)N2CC[C@](O)(Cn3cnc(Oc4ccc(F)cc4)c(N)c3=O)C(F)(F)C2)[C@H](c2ccccc2)C1 [Example 174, 5-amino-3-{[(4S)-3,3-difluoro-4-hydroxy-1-[(1R,2R,4R)-4-methoxy-4-[2-(5-methylpyrimidin-2-yl)ethynyl]-2-phenylcyclohexanecarbonyl]piperidin-4-yl]methyl}-6-(4-fluorophenoxy)-3,4-dihydropyrimidin-4-one]	67.7 nM	0.0174 µM
CO[C@]1(C#Cc2cncnc2)CC[C@@H](C(=O)N2CC[C@](O)(Cn3cnc(Oc4ccc(F)cc4)c(N)c3=O)C(F)(F)C2)[C@H](c2ccccc2)C1 [Example 175, 5-amino-3-{[(4S)-3,3-difluoro-4-hydroxy-1-[(1R,2R,4R)-4-methoxy-2-phenyl-4-[2-(pyrimidin-5-yl)ethynyl]cyclohexanecarbonyl]piperidin-4-yl]methyl}-6-(4-fluorophenoxy)-3,4-dihydropyrimidin-4-one]	54 nM	0.00998 µM
CO[C@]1(C#Cc2nccc(C)n2)CC[C@@H](C(=O)N2CC[C@](O)(Cn3cnc(Oc4ccc(F)cc4)c(N)c3=O)C(F)(F)C2)[C@H](c2ccccc2)C1 [Example 176, 5-amino-3-{[(4S)-3,3-difluoro-4-hydroxy-1-[(1R,2R,4R)-4-methoxy-4-[2-(4-methylpyrimidin-2-yl)ethynyl]-2-phenylcyclohexanecarbonyl]piperidin-4-yl]methyl}-6-(4-fluorophenoxy)-3,4-dihydropyrimidin-4-one]	77.2 nM	0.037 µM

Compounds with a lower IC50 [1], results first:

IC50 [1]	Compound	IC50 [2]
33.3 nM	CO[C@]1(C#Cc2cnc(C)nc2)CC[C@@H](C(=O)N2CC[C@](O)(Cn3cnc(Oc4ccc(F)cc4)c(N)c3=O)C(F)(F)C2)[C@H](c2ccccc2)C1 [Example 177, 5-amino-3-{[(4S)-3,3-difluoro-4-hydroxy-1-[(1R,2R,4R)-4-methoxy-4-[2-(2-methylpyrimidin-5-yl)ethynyl]-2-phenylcyclohexanecarbonyl]piperidin-4-yl]methyl}-6-(4-fluorophenoxy)-3,4-dihydropyrimidin-4-one]	0.0218 µM
23.8 nM	Cc1ccnnc1C#C[C@@]1(F)CC[C@@H](C(=O)N2CC[C@](O)(Cn3cnc(Oc4ccc(F)cc4)c(N)c3=O)C(F)(F)C2)[C@H](c2ccccc2)C1 [Example 171, 5-amino-3-{[(4S)-3,3-difluoro-1-[(1R,2R,4R)-4-fluoro-4-[2-(4-methylpyridazin-3-yl)ethynyl]-2-phenylcyclohexanecarbonyl]-4-hydroxypiperidin-4-yl]methyl}-6-(4-fluorophenoxy)-3,4-dihydropyrimidin-4-one]	0.0168 µM
14.6 nM	COc1cnnc(C#C[C@@]2(OC)CC[C@@H](C(=O)N3CC[C@](O)(Cn4cnc(Oc5ccc(F)cc5)c(N)c4=O)C(F)(F)C3)C(c3ccccc3)C2)c1 (stereo partly drawn) [Example 173, 5-amino-3-{[(4S)-3,3-difluoro-4-hydroxy-1-[(1R,4R)-4-methoxy-4-[2-(5-methoxypyridazin-3-yl)ethynyl]-2-phenylcyclohexanecarbonyl]piperidin-4-yl]methyl}-6-(4-fluorophenoxy)-3,4-dihydropyrimidin-4-one]	0.00521 µM
5.5 nM	Cc1cnnc(C#C[C@@]2(F)CC[C@@H](C(=O)N3CC[C@](O)(Cn4cnc(Oc5ccc(F)cc5)c(N)c4=O)C(F)(F)C3)[C@H](c3ccccc3)C2)c1 [Example 172, 5-amino-3-{[(4S)-3,3-difluoro-1-[(1R,2R,4R)-4-fluoro-4-[2-(5-methylpyridazin-3-yl)ethynyl]-2-phenylcyclohexanecarbonyl]-4-hydroxypiperidin-4-yl]methyl}-6-(4-fluorophenoxy)-3,4-dihydropyrimidin-4-one]	0.00501 µM
